Experimental findings from patent US20240043404A1 (AbbVie Inc., priority 2009, published 2024) are described below.

The first assay relates to RS4;11 cells. In words: RS4;11 cell viability assay (CellTiter Glo).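 Note: acute lymphoblastic leukemia line RS4,11, EC50 derived from percentage of viable cells after treatment relative to untreated controls, cell killing taken as a measure of Bcl-2 inhibition.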 Particulars: 50,000 cells per well, 10% human serum, 48 hours; read-out: RS4; 11 EC50 Values. Format: cell-based, human. (In general: Cellular ATP, detected with luciferase, serves as a proxy for viable cell number.)
Protocol: The acute lymphoblastic leukemia (ALL) cell line RS4;11 was used as the primary human cell line to assess the cellular activity of Bcl-2 selective agents in vitro and their efficacy in vivo.
Cell cytotoxicity EC50 values were assessed using CellTiter Glo (Promega) according to the manufacturer's recommendations. The EC50 values were determined as a percentage of viable cells following treatment compared to the untreated control cells.
For the compound `CC1(C)CCC(CN2CCN(c3ccc(C(=O)NS(=O)(=O)c4ccc(NCC56CC7CC(C5)C(O)C(C7)C6)c([N+](=O)[O-])c4)c(Oc4cnc5[nH]ccc5c4)c3)CC2)=C(c2ccc(Cl)cc2)C1` (stereo not drawn) [Example 199, 4-(4-{[2-(4-chlorophenyl)-4,4-dimethylcyclohex-1-en-1-yl]methyl}piperazin-1-yl)-N-{[4-({[(E)-4-hydroxy-1-adamantyl]methyl}amino)-3-nitrophenyl]sulfonyl}-2-(1H-pyrrolo[2,3-b]pyridin-5-yloxy)benzamide], the EC50 stood at 0.00506 µM.

In the case of `CC1(C)CCC(CN2CCN(c3ccc(C(=O)NS(=O)(=O)c4ccc(NCC56CC7CC(C5)C(O)C(C7)C6)c([N+](=O)[O-])c4)c(Oc4cnc5[nH]ccc5c4)c3)CC2)=C(c2ccc(Cl)cc2)C1` (stereo not drawn) [Example 200, 4-(4-{[2-(4-chlorophenyl)-4,4-dimethylcyclohex-1-en-1-yl]methyl}piperazin-1-yl)-N-{[4-({[(Z)-4-hydroxy-1-adamantyl]methyl}amino)-3-nitrophenyl]sulfonyl}-2-(1H-pyrrolo[2,3-b]pyridin-5-yloxy)benzamide], the EC50 is 0.011 µM.

The assay is the same for the next values; noted with them: Homo sapiens, RS4-11, 48 h, 50,000 cells per well, 10% human serum, 48 hours; read-out: RS4; 11 EC50 Values.
Take `CN(C)CCCOc1ccc(CNc2ccc(S(=O)(=O)NC(=O)c3ccc(N4CCN(CC5=C(c6ccc(Cl)cc6)CC(C)(C)CC5)CC4)cc3Oc3cnc4[nH]ccc4c3)cc2[N+](=O)[O-])cc1` [Example 197, 4-(4-{[2-(4-chlorophenyl)-4,4-dimethylcyclohex-1-en-1-yl]methyl}piperazin-1-yl)-N-{[4-({4-[3-(dimethylamino)propoxy]benzyl}amino)-3-nitrophenyl]sulfonyl}-2-(1H-pyrrolo[2,3-b]pyridin-5-yloxy)benzamide]: the EC50 is 0.0125 µM.

For the compound `CC1(C)CCC(CN2CCN(c3ccc(C(=O)NS(=O)(=O)c4ccc(NCc5ccc(OCCN6CCOCC6)cc5)c([N+](=O)[O-])c4)c(Oc4cnc5[nH]ccc5c4)c3)CC2)=C(c2ccc(Cl)cc2)C1` [Example 198, 4-(4-{[2-(4-chlorophenyl)-4,4-dimethylcyclohex-1-en-1-yl]methyl}piperazin-1-yl)-N-[(4-{[4-(2-morpholin-4-ylethoxy)benzyl]amino}-3-nitrophenyl)sulfonyl]-2-(1H-pyrrolo[2,3-b]pyridin-5-yloxy)benzamide], the EC50 is 0.0362 µM.

On to `CC1(C)CCC(CN2CCN(c3ccc(C(=O)NS(=O)(=O)c4ccc(OCC5C[C@H]6C=C[C@@H]5C6)c([N+](=O)[O-])c4)c(Oc4cnc5[nH]ccc5c4)c3)CC2)=C(c2ccc(Cl)cc2)C1` (stereo partly drawn) [Example 201, N-({4-[(1S,4S)-bicyclo[2.2.1]hept-5-en-2-ylmethoxy]-3-nitrophenyl}sulfonyl)-4-(4-{[2-(4-chlorophenyl)-4,4-dimethylcyclohex-1-en-1-yl]methyl}piperazin-1-yl)-2-(1H-pyrrolo[2,3-b]pyridin-5-yloxy)benzamide], for which the EC50 stood at 0.591 µM.

With `CN1CC(Nc2ccc(S(=O)(=O)NC(=O)c3ccc(N4CCN(CC5=C(c6ccc(Cl)cc6)CC(C)(C)CC5)CC4)cc3Oc3cnc4[nH]ccc4c3)cc2[N+](=O)[O-])CC1=O` (stereo not drawn) [Example 202, 4-(4-{[2-(4-chlorophenyl)-4,4-dimethylcyclohex-1-en-1-yl]methyl}piperazin-1-yl)-N-({4-[(1-methyl-5-oxopyrrolidin-3-yl)amino]-3-nitrophenyl}sulfonyl)-2-(1H-pyrrolo[2,3-b]pyridin-5-yloxy)benzamide], the EC50 is 0.0438 µM.

On to `CC1(C)CCC(CN2CCN(c3ccc(C(=O)NS(=O)(=O)c4ccc(OCC5CCCC(=O)C5)c([N+](=O)[O-])c4)c(Oc4cnc5[nH]ccc5c4)c3)CC2)=C(c2ccc(Cl)cc2)C1` (stereo not drawn) [Example 205, 4-(4-{[2-(4-chlorophenyl)-4,4-dimethylcyclohex-1-en-1-yl]methyl}piperazin-1-yl)-N-({3-nitro-4-[(3-oxocyclohexyl)methoxy]phenyl}sulfonyl)-2-(1H-pyrrolo[2,3-b]pyridin-5-yloxy)benzamide], for which the EC50 was determined as 0.0106 µM.

For `CC1(C)C=CC(c2ccc(Cl)cc2)=C(CN2CCN(c3ccc(C(=O)NS(=O)(=O)c4ccc(NCC5CCOCC5)c([N+](=O)[O-])c4)c(Oc4cnc5[nH]ccc5c4)c3)CC2)C1` [Example 206, 4-(4-{[2-(4-chlorophenyl)-5,5-dimethylcyclohexa-1,3-dien-1-yl]methyl}piperazin-1-yl)-N-({3-nitro-4-[(tetrahydro-2H-pyran-4-ylmethyl)amino]phenyl}sulfonyl)-2-(1H-pyrrolo[2,3-b]pyridin-5-yloxy)benzamide], the EC50 is 0.0529 µM.

Consider `CC1(C)CCC(CN2CCN(c3ccc(C(=O)NS(=O)(=O)c4ccc(N[C@@H]5CCN(C(CF)CF)C5)c([N+](=O)[O-])c4)c(Oc4cnc5[nH]ccc5c4)c3)CC2)=C(c2ccc(Cl)cc2)C1` [Example 207, 4-(4-{[2-(4-chlorophenyl)-4,4-dimethylcyclohex-1-en-1-yl]methyl}piperazin-1-yl)-N-{[4-({(3R)-1-[2-fluoro-1-(fluoromethyl)ethyl]pyrrolidin-3-yl}amino)-3-nitrophenyl]sulfonyl}-2-(1H-pyrrolo[2,3-b]pyridin-5-yloxy)benzamide], for which the EC50 amounted to 0.00376 µM.

For `CC1(C)CCC(CN2CCN(c3ccc(C(=O)NS(=O)(=O)c4cnc(OCC5(F)CCOCC5)c(C(F)(F)F)c4)c(Oc4cnc5[nH]ccc5c4)c3)CC2)=C(c2ccc(Cl)cc2)C1` [Example 208, 4-(4-{[2-(4-chlorophenyl)-4,4-dimethylcyclohex-1-en-1-yl]methyl}piperazin-1-yl)-N-{[6-[(4-fluorotetrahydro-2H-pyran-4-yl)methoxy]-5-(trifluoromethyl)pyridin-3-yl]sulfonyl}-2-(1H-pyrrolo[2,3-b]pyridin-5-yloxy)benzamide], the EC50 is 0.121 µM.

As to `CC1(C)CCC(CN2CCN(c3ccc(C(=O)NS(=O)(=O)c4ccc(NC[C@@H]5CCN(C6COC6)C5)c([N+](=O)[O-])c4)c(Oc4cnc5[nH]ccc5c4)c3)CC2)=C(c2ccc(Cl)cc2)C1` [Example 209, 4-(4-{[2-(4-chlorophenyl)-4,4-dimethylcyclohex-1-en-1-yl]methyl}piperazin-1-yl)-N-{[3-nitro-4-({[(3S)-1-oxetan-3-ylpyrrolidin-3-yl]methyl}amino)phenyl]sulfonyl}-2-(1H-pyrrolo[2,3-b]pyridin-5-yloxy)benzamide], the EC50 was found to be 0.0045 µM.

For the compound `CO[C@H]1CC[C@H](COc2ncc(S(=O)(=O)NC(=O)c3ccc(N4CCN(CC5=C(c6ccc(Cl)cc6)CC(C)(C)CC5)CC4)cc3Oc3cnc4[nH]ccc4c3)cc2Cl)CC1` [Example 210, Trans-N-({5-chloro-6-[(4-methoxycyclohexyl)methoxy]pyridin-3-yl}sulfonyl)-4-(4-{[2-(4-chlorophenyl)-4,4-dimethylcyclohex-1-en-1-yl]methyl}piperazin-1-yl)-2-(1H-pyrrolo[2,3-b]pyridin-5-yloxy)benzamide], the EC50 is 0.0602 µM.

On to `CO[C@H]1CC[C@@H](COc2ncc(S(=O)(=O)NC(=O)c3ccc(N4CCN(CC5=C(c6ccc(Cl)cc6)CC(C)(C)CC5)CC4)cc3Oc3cnc4[nH]ccc4c3)cc2Cl)CC1` [Example 211, Cis-N-({5-chloro-6-[(4-methoxycyclohexyl)methoxy]pyridin-3-yl}sulfonyl)-4-(4-{[2-(4-chlorophenyl)-4,4-dimethylcyclohex-1-en-1-yl]methyl}piperazin-1-yl)-2-(1H-pyrrolo[2,3-b]pyridin-5-yloxy)benzamide], for which the EC50 came to 0.307 µM.

On to `CC1(C)CCC(CN2CCN(c3ccc(C(=O)NS(=O)(=O)c4ccc(N[C@H]5CCN(C6COC6)C5)c([N+](=O)[O-])c4)c(Oc4cnc5[nH]ccc5c4)c3)CC2)=C(c2ccc(Cl)cc2)C1` [Example 212, 4-(4-{[2-(4-chlorophenyl)-4,4-dimethylcyclohex-1-en-1-yl]methyl}piperazin-1-yl)-N-[(3-nitro-4-{[(3S)-1-oxetan-3-ylpyrrolidin-3-yl]amino}phenyl)sulfonyl]-2-(1H-pyrrolo[2,3-b]pyridin-5-yloxy)benzamide], for which the EC50 was 0.0128 µM.

As to `COCCOCCN1CCOC(CNc2ccc(S(=O)(=O)NC(=O)c3ccc(N4CCN(CC5=C(c6ccc(Cl)cc6)CC(C)(C)CC5)CC4)cc3Oc3cnc4[nH]ccc4c3)cc2[N+](=O)[O-])C1` (stereo not drawn) [Example 213, 4-(4-{[2-(4-chlorophenyl)-4,4-dimethylcyclohex-1-en-1-yl]methyl}piperazin-1-yl)-N-({4-[({4-[2-(2-methoxyethoxy)ethyl]morpholin-2-yl}methyl)amino]-3-nitrophenyl}sulfonyl)-2-(1H-pyrrolo[2,3-b]pyridin-5-yloxy)benzamide], the EC50 stood at 0.0061 µM.

As to `CC1(C)CCC(CN2CCN(c3ccc(C(=O)NS(=O)(=O)c4ccc(NCC5CN(CC#N)CCO5)c([N+](=O)[O-])c4)c(Oc4cnc5[nH]ccc5c4)c3)CC2)=C(c2ccc(Cl)cc2)C1` (stereo not drawn) [Example 214, 4-(4-{[2-(4-chlorophenyl)-4,4-dimethylcyclohex-1-en-1-yl]methyl}piperazin-1-yl)-N-{[4-({[4-(cyanomethyl)morpholin-2-yl]methyl}amino)-3-nitrophenyl]sulfonyl}-2-(1H-pyrrolo[2,3-b]pyridin-5-yloxy)benzamide], the EC50 was 0.00438 µM.

Take `CN(C)CC(=O)N1CCOC(CNc2ccc(S(=O)(=O)NC(=O)c3ccc(N4CCN(CC5=C(c6ccc(Cl)cc6)CC(C)(C)CC5)CC4)cc3Oc3cnc4[nH]ccc4c3)cc2[N+](=O)[O-])C1` (stereo not drawn) [Example 215, 4-(4-{[2-(4-chlorophenyl)-4,4-dimethylcyclohex-1-en-1-yl]methyl}piperazin-1-yl)-N-{[4-({[4-(N,N-dimethylglycyl)morpholin-2-yl]methyl}amino)-3-nitrophenyl]sulfonyl}-2-(1H-pyrrolo[2,3-b]pyridin-5-yloxy)benzamide]: the EC50 stood at 0.00056 µM.

As for `CC1(C)CCC(CN2CCN(c3ccc(C(=O)NS(=O)(=O)c4ccc(NCC5CN(CC(=O)O)CCO5)c([N+](=O)[O-])c4)c(Oc4cnc5[nH]ccc5c4)c3)CC2)=C(c2ccc(Cl)cc2)C1` (stereo not drawn) [Example 216, (2-{[(4-{[4-(4-{[2-(4-chlorophenyl)-4,4-dimethylcyclohex-1-en-1-yl]methyl}piperazin-1-yl)-2-(1H-pyrrolo[2,3-b]pyridin-5-yloxy)benzoyl]sulfamoyl}-2-nitrophenyl)amino]methyl}morpholin-4-yl)acetic acid], the EC50 was determined as 0.683 µM.
